Experimental data from article PMC10064330, “Reversible Dual-Covalent Molecular Locking of the 14-3-3/ERRγ Protein–Protein Interaction as a Molecular Glue Drug Discovery Approach” (Journal of the American Chemical Society, 2023).

These compounds were tested against T1, 14-3-3γ/PKR complex (Homo sapiens, UniProt P61981) (assay: FA / TD-FA selectivity screen, PKR client peptide). Settings: 100 μM compound.
T1 construct: made in house; host or cells: E. coli NiCo21 (DE3)
T1 sequence (P61981 1-247): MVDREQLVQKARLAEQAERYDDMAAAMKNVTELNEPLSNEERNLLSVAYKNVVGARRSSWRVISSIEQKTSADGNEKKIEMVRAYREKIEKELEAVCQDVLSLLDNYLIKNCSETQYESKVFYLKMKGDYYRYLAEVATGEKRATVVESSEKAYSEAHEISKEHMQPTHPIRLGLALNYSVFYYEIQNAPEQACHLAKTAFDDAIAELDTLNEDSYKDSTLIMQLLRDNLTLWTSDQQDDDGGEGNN
Format: binding
Description: Drugging the hub protein 14-3-3 raises the challenge of selectivity, given that 14-3-3 binds several hundred phosphoprotein partners (Figure 4a).[54] We hypothesized that the interplay of chemical reactivity, the topology, and functionality of the composite binding pocket shaped by 14-3-3 and the interaction partner drives selective stabilization of the 14-3-3/ERRγ complex.[53] To validate selectivity, molecular locks 5 and 10 were tested against a panel of nine 14-3-3 client peptides in an FA assay, and the SF100 was determined for each 14-3-3 PPI (Figure 4b and Figures S18–S20). This client panel contained a diverse representation of 14-3-3 binding proteins, differing for example in size and hydrophobicity of the +1 amino acid. Importantly, clients PKR and RND3, each containing a +1 Cys, were included in the panel.
To further assess off-target reactivity to +1 Cys-containing peptides, fragment 1, locks 5 and 10 were also screened against PKR and RND3 in the TD-FA assay.
Figure S20. KD and SF100 plot – selectivity screen. […]
nine different client peptides in presence of DMSO (negative control) or 100 µM of compound 1, 5 or 10 (based on binding curves in Figure S19). Also a bar plot representation of stabilization factor (SF100) of compounds 1, 5 and 10 for each of these peptides (bottom plot).
(1 picture or pasted object on this page, not shown here)
Experimental Section Biophysical Assays
14-3-3γ protein expression (FA, TSA, MS assays)
A pPROEX HTb expression vector encoding the human 14-3-3 protein gamma (14-3-3γ) with a N-terminal his6-tag was transformed by heat shock into NiCo21 (DE3) competent cells. Single colonies were cultured in 50 mL LB medium (100 µg/mL ampicillin). After overnight incubation at 37 °C, cultures were transferred to 2 L TB media (100 µg/mL ampicillin, 1 mM MgCl2) and incubated at 37 °C until an OD600 nm of 0.8 -1.2 was reached. […] Finally, the protein was concentrated to ∼60 mg/mL, analyzed Q-Tof LC/MS, and aliquots were flash-frozen for storage at −80 °C. […]
With `CN(C)CCSSCCN(C)C(=O)c1cccc(F)c1` [compound 1, reference compound] the “stabilization of the PKR complex” value was “no stabilization”.
For `CN(C)CCSSCCN(C)C(=O)c1ccc(C=O)c(F)c1` [compound 5], the “stabilization of the PKR complex” value was “no stabilization”.
With `CN(C)CCSSCCN(C)C(=O)c1cc(Br)cc(C=O)c1` [compound 10] the “stabilization of the PKR complex” value was “no stabilization”.
